Structures can show the parent of a compound that is named as a salt.
Legend:
[1] = test system: NCI-H292 lung cancer cells; experiment: FDA drug screening, complete media vs cholesterol-free media without statin (TABLE 1); format: cell-based, human
[2] = test system: NCI-H292 lung cancer cells; experiment: FDA drug screening, complete media vs cholesterol-free media with simvastatin (TABLE 2); format: cell-based, human; conditions: for Cholesterol-free media + simvastatin (0.04 μM) / Complete Media: NCI-H292 cells
[3] = Complete minus Cholesterol-free, […]
[4] = NCI-H292 cells, cholesterol-free media without statin, FDA drug library screen
[5] = NCI-H292 cells, complete media, FDA drug library screen
[6] = cholesterol-free media with simvastatin 0.04 μM, […]
[7] = complete media minus cholesterol-free media + simvastatin, […]
[8] = complete vs cholesterol-free media, >0 enhanced anti-cancer activity, about 0 neutral, <0 antagonist
[9] = FDA drug library screen, cholesterol-free media with simvastatin 0.04 μM
[10] = FDA drug library screen, complete media
[11] = complete media vs cholesterol-free media + simvastatin (0.04 μM), >0 enhanced anti-cancer activity, about 0 neutral, <0 antagonist
[12] = Complete minus Cholesterol-free, >0 enhanced anti-cancer activity, about 0 neutral, <0 antagonist
[13] = FDA library drug in cholesterol-free media with simvastatin 0.04 μM
[14] = FDA library drug in complete media
[15] = cholesterol-free media with simvastatin 0.04 μM, FDA drug library screen (TABLE 2)
[16] = complete media, FDA drug library screen (TABLE 2)
[17] = complete media minus cholesterol-free media + simvastatin (0.04 μM), >0 enhanced anti-cancer activity, about 0 neutral, <0 antagonist
[18] = NCI-H292 cells, cholesterol-free media without statin
[19] = complete vs cholesterol-free media, greater than 0 enhanced anti-cancer activity, about 0 neutral, below 0 antagonists
[20] = complete media minus cholesterol-free media + simvastatin, >0 enhanced anti-cancer activity, about 0 neutral, <0 antagonist
[21] = cholesterol-free media with simvastatin 0.04 μM, cell growth value in FDA drug screen
[22] = complete media, cell growth value in FDA drug screen
[23] = Complete minus Cholesterol-free, greater than 0 enhanced anti-cancer activity, about 0 neutral, below 0 antagonist
[24] = NCI-H292 cells, FDA drug library screen, cholesterol-free media without statin
[25] = NCI-H292 cells, FDA drug library screen, complete media

Compound	Cholesterol-free [1, 4]	Complete [1, 5]	Difference [1, 8]	Cholesterol-free media + simvastatin (0.04 μM) [2, 9]	Complete Media [2, 10]	Difference [2, 11]	Cholesterol-free [1, 18]	Complete ([1]; NCI-H292 cells, complete media)	other results
CCN(CC)c1ccc(C(=C2C=CC(=[N+](CC)CC)C=C2)c2cc(S(=O)(=O)[O-])ccc2S(=O)(=O)[O-])cc1.[Na+] [Isosulfan blue]	1.156	1.087							Difference [1, 3]: −0.07; Cholesterol-free media + simvastatin (0.04 μM) [2, 6]: 1.148; Complete Media ([2]; complete media, […]): 1.247; Difference [2, 7]: 0.10
Cc1nc(-c2ccc(OCC(C)C)c(C#N)c2)sc1C(=O)O [Febuxostat]	0.955	1.415	0.46	1.155	1.036	−0.12			
CO/N=C(\C(=O)N[C@@H]1C(=O)N2C(C(=O)O)=CCS[C@H]12)c1csc(N)n1 [Ceftizoxime]	1.031	1.057				−0.18			Difference [1, 12]: 0.03; Cholesterol-free media + simvastatin (0.04 μM) ([2]; drug in cholesterol-free media with simvastatin 0.04 μM): 1.55; Complete Media ([2]; drug in complete media): 1.371
Cc1ccc(S(=O)(=O)NC(=O)NN2CC3CCCC3C2)cc1 (stereo not shown) [Gliclazide]	1.079	1.122				−0.28			Difference [1, 12]: 0.04; Cholesterol-free media + simvastatin (0.04 μM) [2, 13]: 1.233; Complete Media [2, 14]: 0.9583
Nc1ccn([C@@H]2O[C@H](CO)[C@@H](O)C2(F)F)c(=O)n1 [Gemcitabine (hydrochloride)]	0.05262	0.01403							Difference [1, 12]: −0.04; Cholesterol-free media + simvastatin (0.04 μM) [2, 15]: 0.04392; Complete Media [2, 16]: 0.02306; Difference [2, 17]: −0.02
CCN[C@@H]1C[C@H](N)[C@@H](O[C@H]2OC(CN)=CC[C@H]2N)[C@H](O)[C@H]1O[C@H]1OC[C@](C)(O)[C@H](NC)[C@H]1O.CCN[C@@H]1C[C@H](N)[C@@H](O[C@H]2OC(CN)=CC[C@H]2N)[C@H](O)[C@H]1O[C@H]1OC[C@](C)(O)[C@H](NC)[C@H]1O.O=S(=O)(O)O.O=S(=O)(O)O.O=S(=O)(O)O.O=S(=O)(O)O.O=S(=O)(O)O [Netilmicin (sulfate)]				1.19	1.538		1.778	1.428	Difference [1, 19]: −0.35; Difference [2, 20]: 0.35
COc1nc2ccc(Br)cc2cc1[C@@H](c1ccccc1)[C@@](O)(CCN(C)C)c1cccc2ccccc12 [Bedaquiline]	0.6087	1.472	0.86						Cholesterol-free media + simvastatin (0.04 μM) [2, 21]: 1.492; Complete Media [2, 22]: 1.59; Difference [2, 20]: 0.10
OCCOCCN1CCN(C(c2ccccc2)c2ccc(Cl)cc2)CC1 (stereo not shown) [Hydroxyzine (dihydrochloride)]				0.6407			1.474	1.128	Difference [1, 19]: −0.35; Difference [2, 20]: 0.53
NC[C@H]1O[C@H](O[C@H]2[C@H](O[C@@H]3O[C@H](CO)[C@@H](O)[C@H]3O)[C@@H](O)[C@H](N)C[C@@H]2N)[C@H](N)[C@@H](O)[C@@H]1O.O=S(=O)(O)O [Ribostamycin (sulfate)]						−0.36	1.714	1.495	Difference [1, 12]: −0.22; Cholesterol-free media + simvastatin (0.04 μM) [2, 13]: 1.833; Complete Media [2, 14]: 1.478
Cc1ccsc1C(=CCCN1CCC[C@@H](C(=O)O)C1)c1sccc1C [Tiagabine (hydrochloride)]							1.406	1.159	Difference [1, 12]: −0.25; Cholesterol-free media + simvastatin (0.04 μM) [2, 21]: 0.8465; Complete Media [2, 22]: 0.9752; Difference [2, 20]: 0.13
N=C(N)NC(=O)c1nc(Cl)c(N)nc1N [Amiloride (hydrochloride)]				1.016	0.8717	−0.14			Difference [1, 23]: −0.17; Cholesterol-free [1, 24]: 1.642; Complete [1, 25]: 1.47
O=C(O)/C=C/c1ccc(O)c(O)c1 [Caffeic acid]	0.885	0.8915		0.9424	0.8032	−0.14			Difference [1, 12]: 0.01
Capreomycin (sulfate)							1.728	1.371	Difference ([1]; complete vs cholesterol-free media, […]): −0.36; Cholesterol-free media + simvastatin (0.04 μM) [2, 6]: 0.9008; Complete Media ([2]; complete media, […]): 0.9756; Difference [2, 7]: 0.07
CC(C)C(=O)OCC(=O)[C@@]12O[C@H](C3CCCCC3)O[C@@H]1C[C@H]1[C@@H]3CCC4=CC(=O)C=C[C@]4(C)[C@H]3[C@@H](O)C[C@@]12C [Ciclesonide]				0.6652	0.5742	−0.09	0.7014	0.4234	Difference [1, 12]: −0.28
Cl.NCCC[C@H](N)C(=O)O [L-Ornithine (hydrochloride)]									Difference [1, 23]: −0.11; Cholesterol-free [1, 24]: 1.434; Complete [1, 25]: 1.328; Cholesterol-free media + simvastatin (0.04 μM) [2, 15]: 0.8763; Complete Media [2, 16]: 0.8132; Difference [2, 17]: −0.06
C[C@H](CCC(=O)O)[C@H]1CC[C@H]2[C@@H]3[C@H](O)C[C@@H]4C[C@H](O)CC[C@]4(C)[C@H]3CC[C@]12C [Chenodeoxycholic Acid]	0.7972	1.211	0.41						Cholesterol-free media + simvastatin (0.04 μM) [2, 15]: 0.895; Complete Media [2, 16]: 0.9061; Difference [2, 17]: 0.01
O=C(O)Cc1ccccc1Nc1c(Cl)cccc1Cl [Diclofenac (diethylamine)]	0.7838		0.36						Cholesterol-free media + simvastatin (0.04 μM) [2, 15]: 0.9893; Complete Media [2, 16]: 0.9206; Difference [2, 17]: −0.07
COc1ccc2c(O[C@@H]3C[C@H]4C(=O)N[C@]5(C(=O)NS(=O)(=O)C6CC6)C[C@H]5/C=C\CCCCN(C)C(=O)[C@@H]4C3)cc(-c3nc(C(C)C)cs3)nc2c1C [Simeprevir]	0.5666	0.795	0.23	0.845	0.7552	−0.09			
CC(N)C12CC3CC(CC(C3)C1)C2 (stereo not shown) [Rimantadine (hydrochloride)]	0.8509	1.649	0.80	0.9474	0.8656	−0.08			
COc1c(-c2ccc3cc(NS(C)(=O)=O)ccc3c2)cc(-n2ccc(=O)[nH]c2=O)cc1C(C)(C)C [Dasabuvir]							1.225	0.8287	Difference [1, 19]: −0.40; Cholesterol-free media + simvastatin (0.04 μM) [2, 15]: 1.1; Complete Media [2, 16]: 1.064; Difference [2, 17]: −0.04
CCO/N=C(\C(=O)N[C@@H]1C(=O)N2C(C(=O)[O-])=C(Sc3nc(-c4cc[n+](C)cc4)cs3)CS[C@H]12)c1nsc(NP(=O)(O)O)n1 [Ceftaroline fosamil]				1.027	0.9313	−0.10			Difference ([1]; Complete minus Cholesterol-free, greater than 0 enhanced anti-cancer activity, about 0 neutral, below 0 antagonists): −0.71; Cholesterol-free ([1]; NCI-H292 cells in cholesterol-free media without statin): 1.53; Complete ([1]; NCI-H292 cells in complete media): 0.8244
CC(C)[C@H]1CC[C@H](C(=O)N[C@H](Cc2ccccc2)C(=O)O)CC1 [Nateglinide]	1.149	1.887	0.74	1.052	1.823				Difference [2, 20]: 0.77
CCCCCCCCCCCCCCCC(=O)O[C@@H]1[C@@H](O)[C@@H](O)[C@@H]([C@H](NC(=O)[C@@H]2C[C@@H](CCC)CN2C)[C@H](C)Cl)O[C@@H]1SC.Cl [Clindamycin palmitate (hydrochloride)]	0.6777	1.478	0.80	1.093	0.9482	−0.14			
CCC(CC)[C@H](NC(C)=O)[C@@H]1[C@H](O)[C@@H](C(=O)O)C[C@H]1NC(=N)N.O.O.O [Peramivir (trihydrate)]				1.025	0.9283	−0.10	2.062	1.606	Difference [1, 19]: −0.46
CC(=O)[C@@]1(O)CC[C@H]2[C@@H]3CCC4=CC(=O)CC[C@]4(C)[C@H]3CC[C@@]21C [17-Hydroxyprogesterone]	1.202	1.185		0.9953	0.8962				Difference [1, 3]: −0.02; Difference ([2]; complete media vs cholesterol-free media + simvastatin (0.04 μM), […]): −0.10
